According to ChEMBL document CHEMBL1125224, “Examination of HIV-1 protease secondary structure specificity using conformationally constrained inhibitors” (J Med Chem, 1991):

Molecular target: Human immunodeficiency virus type 1 protease (Human immunodeficiency virus 1, UniProt Q72874)
Assay: Concentration required to inhibit HIV-1 protease activity calculated from plots of % inhibition vs inhibitor concentration

| Compound | IC50 [µM] |
| --- | --- |
| CC[C@H](C)[C@H](NC(=O)C[C@H](O)[C@H](CC1CCCCC1)NC(=O)CC1C=CCN2C(=O)CCC(CNCc3ccccc3)C(=O)N12)C(=O)N[C@@H](Cc1ccccc1)C(=O)O (stereo not given in full) | 360 |
| CC[C@H](C)[C@H](NC(=O)C[C@H](O)[C@H](CC(C)C)NC(=O)CC1C=CCN2C(=O)CCC(CNCc3ccccc3)C(=O)N12)C(=O)N[C@@H](Cc1ccccc1)C(=O)OC (stereo not given in full) | 140 |
| CCC(C)[C@H](NC(=O)C[C@H](O)[C@H](Cc1ccccc1)NC(=O)CC1C=CCN2C(=O)CCC(CNCc3ccccc3)C(=O)N12)C(=O)N[C@@H](Cc1ccccc1)C(=O)OC (stereo not given in full) | 350 |
| CCC(C)[C@H](NC(=O)C[C@H](O)[C@H](CC1CCCCC1)NC(=O)CC1CCCN2C(=O)CCC(CN)C(=O)N12)C(=O)N[C@@H](Cc1ccccc1)C(N)=O (stereo not given in full) | 0.026 |
| CCC(C)[C@H](NC(=O)C[C@H](O)[C@H](CC(C)C)NC(=O)CC1C=CCN2C(=O)CCC(CNCc3ccccc3)C(=O)N12)C(=O)N[C@@H](Cc1ccccc1)C(N)=O (stereo not given in full) | 21 |
